Here are results for six compounds from ChEMBL document CHEMBL1201862, “PubChem BioAssay data set” (2004).

Calls of active or inactive are those of the source. A value given as a limit tells only on which side of the number the result lay.

The test system of one assay is HeLa. As to the kind of experiment: viability loss in HeLa cells – cell-based, 24 h, cherry-picked samples, cytotoxicity control, dose response (AID 504726).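 Also: potency for cytotoxicity as loss of luminescence signal.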 To be noted: Homo sapiens. The class given is functional.
A further assay deals with Cytochrome P450 2C19 (Homo sapiens, UniProt P33261). As to the kind of experiment: Cytochrome panel assay with activity outcomes. Panel member name: p450-cyp2c19 Compounds with AC50 equal or less than 10 uM are considered active. The class given is functional. To be noted: read-out: AC50.
The target in assay [1] is DNA (cytosine-5)-methyltransferase 1 (Homo sapiens, UniProt P26358). In words: inhibition of DNA methylation by DNMT1 – biochemical, fluorescent molecular beacon, confirmation (AID 602386). Type of assay: functional.
A short description of assay [2]: viability loss in THP-1 monocytes – THP-1 cells, cytotoxicity control for Vif-APOBEC3G degradation inhibitor project, dose response (AID 1117359). As to conditions: THP-1. Type of assay: functional.
Another assay deals with Cytochrome P450 2C9 (Homo sapiens, UniProt P11712).
For assay [3], the target named is Dual specificity protein phosphatase 3 (Homo sapiens, UniProt P51452). In words: inhibition constants for human DUSP3 – biochemical, colorimetric, SAR follow-up (AID 2004).
Assay [4] has as its target Signal transducer and activator of transcription 3 (Homo sapiens, UniProt P40763). As to the kind of experiment: STAT3 activation with BCL3 mRNA and toxicity – cell-based, […], BCL3 qPCR, cytotoxicity, late-stage follow-up, panel member STAT3 Activation (AID 2049).
In a further assay the target is Wee1-like protein kinase (Homo sapiens, UniProt P30291). In words: HeLa cell cycle G2/M accumulation – FACS, mechanism study for Wee1 degradation inhibitor project, late-stage follow-up, panel member Wee1 Degradation (AID 2088).
For assay [5], the target named is G2/mitotic-specific cyclin-B1 (Homo sapiens, UniProt P14635). As to the kind of experiment: HeLa cell cycle G2/M accumulation – FACS, mechanism study for Wee1 degradation inhibitor project, late-stage follow-up, panel member Cyclin B Degradation (AID 2088).
A short description of assay [6]: Luminescence Cell-Based Dose Retest to Confirm Inhibitors of Cancer Stem Cells. [Related pubchem assays (depositor defined):AID2717, AID2721]. The class given is functional. To be noted: Homo sapiens.
Assay [7] concerns the target T1, Ubiquitin-conjugating enzyme E2 N (Homo sapiens, UniProt P61088).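 Also: Dose-response confirmation in a TR-FRET assay detecting UBC13-driven polyubiquitin chain formation, inhibition measured.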
T1 sequence (P61088 whole entry): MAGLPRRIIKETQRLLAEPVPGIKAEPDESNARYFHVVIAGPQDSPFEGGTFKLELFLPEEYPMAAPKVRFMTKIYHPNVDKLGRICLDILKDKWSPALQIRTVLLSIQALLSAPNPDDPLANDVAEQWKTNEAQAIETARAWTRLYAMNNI
The class given is functional.

For assay [8], the target named is Cyclin-dependent kinase 5/CDK5 activator 1 (Homo sapiens, UniProt Q00535). In words: blockade of human CDK5 activity – biochemical, cherry-picked samples, set 2, dose response (AID 504545).
The target of assay [9] is Metabotropic glutamate receptor 4 (Homo sapiens, UniProt Q14833). In words: Modulation of the Metabotropic Glutamate Receptor mGluR4: Potency at human mGluR4. Modulation of intracellular Ca2+ using Fluo-4, AM, in CHO expressing recombinant receptor [Related pubchem assays (depositor defined):AID2437, AID2807]. Type of assay: functional, cell-based.
Sequence of Metabotropic glutamate receptor 4 (Q14833 whole entry): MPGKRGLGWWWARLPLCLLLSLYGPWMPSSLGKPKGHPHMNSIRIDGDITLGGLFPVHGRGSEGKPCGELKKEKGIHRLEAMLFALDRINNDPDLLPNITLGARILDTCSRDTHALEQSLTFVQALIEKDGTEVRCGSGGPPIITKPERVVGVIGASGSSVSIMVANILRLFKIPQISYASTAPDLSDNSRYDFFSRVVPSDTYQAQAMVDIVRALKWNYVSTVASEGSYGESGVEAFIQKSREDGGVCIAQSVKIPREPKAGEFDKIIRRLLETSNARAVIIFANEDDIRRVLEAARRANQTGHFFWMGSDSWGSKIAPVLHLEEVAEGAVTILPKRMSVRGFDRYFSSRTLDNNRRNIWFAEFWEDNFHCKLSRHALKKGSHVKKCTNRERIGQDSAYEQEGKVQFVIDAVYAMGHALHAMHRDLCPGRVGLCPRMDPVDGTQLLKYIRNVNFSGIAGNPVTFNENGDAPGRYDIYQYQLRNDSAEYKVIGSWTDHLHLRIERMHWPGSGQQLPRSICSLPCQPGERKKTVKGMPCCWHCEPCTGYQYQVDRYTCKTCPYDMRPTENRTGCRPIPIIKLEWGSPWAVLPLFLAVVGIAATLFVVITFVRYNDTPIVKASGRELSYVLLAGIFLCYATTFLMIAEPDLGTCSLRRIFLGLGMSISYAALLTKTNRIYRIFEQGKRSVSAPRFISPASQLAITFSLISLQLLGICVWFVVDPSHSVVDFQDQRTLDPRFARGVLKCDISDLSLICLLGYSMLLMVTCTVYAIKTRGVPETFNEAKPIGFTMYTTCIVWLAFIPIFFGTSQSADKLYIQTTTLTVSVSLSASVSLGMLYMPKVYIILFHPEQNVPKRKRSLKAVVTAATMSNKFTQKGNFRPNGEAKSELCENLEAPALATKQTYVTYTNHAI

Sequence of Cytochrome P450 2C19 (P33261 whole entry): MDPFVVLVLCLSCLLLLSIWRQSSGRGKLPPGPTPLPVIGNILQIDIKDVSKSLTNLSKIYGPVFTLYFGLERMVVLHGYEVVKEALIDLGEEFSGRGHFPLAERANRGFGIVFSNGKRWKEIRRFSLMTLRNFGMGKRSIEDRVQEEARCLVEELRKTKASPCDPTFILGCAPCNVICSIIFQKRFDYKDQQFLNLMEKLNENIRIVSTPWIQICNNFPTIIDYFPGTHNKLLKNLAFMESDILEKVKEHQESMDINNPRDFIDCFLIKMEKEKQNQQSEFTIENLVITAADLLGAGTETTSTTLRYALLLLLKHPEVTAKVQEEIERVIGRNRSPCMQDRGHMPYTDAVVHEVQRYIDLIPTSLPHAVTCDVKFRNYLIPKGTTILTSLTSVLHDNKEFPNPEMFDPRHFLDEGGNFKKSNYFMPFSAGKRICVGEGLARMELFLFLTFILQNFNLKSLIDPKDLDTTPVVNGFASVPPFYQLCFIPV
Sequence of Cytochrome P450 2C9 (P11712 whole entry): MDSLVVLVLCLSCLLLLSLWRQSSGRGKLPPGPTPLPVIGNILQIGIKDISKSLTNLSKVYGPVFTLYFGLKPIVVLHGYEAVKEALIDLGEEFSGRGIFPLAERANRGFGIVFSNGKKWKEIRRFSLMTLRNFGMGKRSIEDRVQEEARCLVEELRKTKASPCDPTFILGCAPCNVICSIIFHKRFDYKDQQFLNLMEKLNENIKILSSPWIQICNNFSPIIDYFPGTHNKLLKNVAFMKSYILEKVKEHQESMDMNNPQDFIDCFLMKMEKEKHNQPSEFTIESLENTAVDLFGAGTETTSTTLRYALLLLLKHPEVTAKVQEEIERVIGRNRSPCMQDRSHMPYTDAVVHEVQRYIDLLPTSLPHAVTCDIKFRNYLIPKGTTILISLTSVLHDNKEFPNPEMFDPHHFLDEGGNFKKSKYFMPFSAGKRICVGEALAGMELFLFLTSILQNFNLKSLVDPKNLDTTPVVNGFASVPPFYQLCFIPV
Sequence of G2/mitotic-specific cyclin-B1 (P14635 whole entry): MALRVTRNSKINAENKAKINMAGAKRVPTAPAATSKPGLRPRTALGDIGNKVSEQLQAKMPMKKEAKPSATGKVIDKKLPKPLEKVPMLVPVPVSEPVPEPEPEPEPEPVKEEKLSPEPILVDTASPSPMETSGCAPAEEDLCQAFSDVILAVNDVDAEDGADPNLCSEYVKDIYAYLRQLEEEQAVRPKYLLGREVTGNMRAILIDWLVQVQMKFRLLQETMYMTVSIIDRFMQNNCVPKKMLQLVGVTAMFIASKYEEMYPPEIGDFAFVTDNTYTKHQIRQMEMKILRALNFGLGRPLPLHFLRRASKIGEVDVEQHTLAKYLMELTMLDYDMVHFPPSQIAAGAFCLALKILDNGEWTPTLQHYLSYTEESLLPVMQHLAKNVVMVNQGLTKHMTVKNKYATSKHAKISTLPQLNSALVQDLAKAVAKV
Sequence of DNA (cytosine-5)-methyltransferase 1 (P26358 whole entry): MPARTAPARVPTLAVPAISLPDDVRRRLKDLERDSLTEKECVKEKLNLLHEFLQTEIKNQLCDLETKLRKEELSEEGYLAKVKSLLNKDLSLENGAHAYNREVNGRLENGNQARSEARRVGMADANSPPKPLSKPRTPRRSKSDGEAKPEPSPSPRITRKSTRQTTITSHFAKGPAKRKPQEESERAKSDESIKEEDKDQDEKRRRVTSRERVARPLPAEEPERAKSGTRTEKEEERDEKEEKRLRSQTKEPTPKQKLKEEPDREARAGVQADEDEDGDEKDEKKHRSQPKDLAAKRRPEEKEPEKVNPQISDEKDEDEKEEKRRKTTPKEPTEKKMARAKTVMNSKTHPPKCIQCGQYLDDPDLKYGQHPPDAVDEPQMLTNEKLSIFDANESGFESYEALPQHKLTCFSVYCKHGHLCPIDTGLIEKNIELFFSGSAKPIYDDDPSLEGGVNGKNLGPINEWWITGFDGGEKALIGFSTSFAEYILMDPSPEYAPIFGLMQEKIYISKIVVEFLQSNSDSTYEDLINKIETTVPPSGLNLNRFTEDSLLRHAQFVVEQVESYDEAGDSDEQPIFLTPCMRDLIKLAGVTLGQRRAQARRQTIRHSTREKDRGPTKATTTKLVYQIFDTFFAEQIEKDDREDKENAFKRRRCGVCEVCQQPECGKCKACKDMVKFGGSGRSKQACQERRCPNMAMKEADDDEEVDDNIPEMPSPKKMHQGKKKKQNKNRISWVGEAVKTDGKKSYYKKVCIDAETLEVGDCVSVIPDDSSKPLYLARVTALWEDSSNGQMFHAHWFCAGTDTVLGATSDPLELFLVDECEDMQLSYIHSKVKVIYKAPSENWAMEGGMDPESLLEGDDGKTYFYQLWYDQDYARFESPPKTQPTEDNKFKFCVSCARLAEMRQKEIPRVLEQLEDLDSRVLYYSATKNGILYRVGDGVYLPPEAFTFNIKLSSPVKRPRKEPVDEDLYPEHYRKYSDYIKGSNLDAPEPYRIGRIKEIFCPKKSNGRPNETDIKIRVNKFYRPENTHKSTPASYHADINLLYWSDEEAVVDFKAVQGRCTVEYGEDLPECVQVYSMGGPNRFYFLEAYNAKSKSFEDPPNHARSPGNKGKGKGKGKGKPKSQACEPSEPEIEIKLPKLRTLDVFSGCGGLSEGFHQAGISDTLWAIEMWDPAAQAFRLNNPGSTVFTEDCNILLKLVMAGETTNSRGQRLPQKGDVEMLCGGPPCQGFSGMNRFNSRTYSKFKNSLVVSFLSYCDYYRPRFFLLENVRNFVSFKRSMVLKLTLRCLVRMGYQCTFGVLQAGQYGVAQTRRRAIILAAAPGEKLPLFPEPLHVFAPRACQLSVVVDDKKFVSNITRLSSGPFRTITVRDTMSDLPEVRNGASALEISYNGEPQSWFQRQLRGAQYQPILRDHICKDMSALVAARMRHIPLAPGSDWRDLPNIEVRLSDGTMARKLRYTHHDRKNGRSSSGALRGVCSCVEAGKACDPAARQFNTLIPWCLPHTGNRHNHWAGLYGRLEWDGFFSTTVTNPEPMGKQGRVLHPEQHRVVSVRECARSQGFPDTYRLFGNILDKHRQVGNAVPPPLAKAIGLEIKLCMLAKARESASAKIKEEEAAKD
Sequence of Dual specificity protein phosphatase 3 (P51452 whole entry): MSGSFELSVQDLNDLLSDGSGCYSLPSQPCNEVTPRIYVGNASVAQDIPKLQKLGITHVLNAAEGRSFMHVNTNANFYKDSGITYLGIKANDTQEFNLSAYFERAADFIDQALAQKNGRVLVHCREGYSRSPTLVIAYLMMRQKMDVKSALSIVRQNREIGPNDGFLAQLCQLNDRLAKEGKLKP
Sequence of Cyclin-dependent kinase 5/CDK5 activator 1 (Q00535 whole entry): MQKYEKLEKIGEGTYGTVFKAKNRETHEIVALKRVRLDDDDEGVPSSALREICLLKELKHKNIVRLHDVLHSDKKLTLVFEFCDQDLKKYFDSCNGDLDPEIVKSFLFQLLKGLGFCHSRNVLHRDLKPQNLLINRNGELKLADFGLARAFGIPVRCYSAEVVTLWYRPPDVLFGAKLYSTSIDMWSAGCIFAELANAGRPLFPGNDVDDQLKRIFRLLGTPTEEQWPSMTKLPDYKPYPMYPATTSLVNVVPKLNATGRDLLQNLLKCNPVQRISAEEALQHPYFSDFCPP
Sequence of Cyclin-dependent kinase 5/CDK5 activator 1 (Q15078 whole entry, further chain): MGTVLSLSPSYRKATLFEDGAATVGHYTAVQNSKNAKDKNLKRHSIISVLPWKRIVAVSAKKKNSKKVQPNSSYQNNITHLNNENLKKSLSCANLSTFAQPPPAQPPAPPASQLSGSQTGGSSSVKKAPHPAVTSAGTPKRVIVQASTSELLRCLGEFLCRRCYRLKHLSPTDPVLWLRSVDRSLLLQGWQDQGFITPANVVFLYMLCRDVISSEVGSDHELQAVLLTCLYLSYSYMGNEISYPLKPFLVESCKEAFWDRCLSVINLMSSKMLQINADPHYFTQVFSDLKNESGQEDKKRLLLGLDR

Regarding `COC(=O)\C(C(C)=O)=C(/C=C/C=C/C=C/N(C)C)N(C)C`, the AC50 in the assay with HeLa is 274 µM (active); on Cytochrome P450 2C19 it was 14.1 µM (inconclusive); at Cytochrome P450 2C9 it was 15.8 µM (inconclusive). In assay [1], the IC50 was 8.38 µM (active). The CC50 in assay [2] was > 40 µM (active).
For the compound `COc1ccc(-c2csc(Nc3ccc(N)cc3)n2)cc1OC`, in assay [3], the Ki is 71.1 µM (inactive).
On to `COc1cc(NC(=O)c2cc(C3CC3)on2)cc(OC)c1`, for which the EC50 in assay [4] is > 5.57 µM (inactive).
On to `Cc1ccc(NC(=O)CCCOc2cc(=O)n(C)c3ccccc23)c(Cl)c1`, for which the EC50 (at Wee1-like protein kinase; in assay [5]) was > 49.7 µM (inactive) in each case.
As to `CC[C@H](CO)Nc1nc(Nc2cccc(Cl)c2)c2ncn(C(C)C)c2n1`, the AC50 in [6] is 6.4 µM (active); in [8], 0.275 µM (active). The IC50 in assay [7] is > 20 µM (inactive).
On to `N#Cc1ccc(NC(=O)c2ccccn2)cc1C(F)(F)F`, for which the EC50 in [9] was 1.77 µM (active).
